Measured values published in patent US10774046B2, “Inhibitors for the treatment of cancer and related methods” (UNIVERSITY OF LOUISVILLE RESEARCH FOUNDATION, INC., priority 2017, dated 2020).

Experiments:
[1] = oral and intravenous pharmacokinetic properties; type: in vivo; conditions: CD-1 mice (N=3)
LLC xenografts = experiment: intratumoral F2,6BP; type: in vivo, C57BL/6 mice; conditions: 120 mg/kg by gavage daily, 10 days
Method: Cells or tissues were prepared as previously described and F2,6BP content measured using a coupled enzyme reaction following a modification of the method of Van Schaftingen et al (VAN SCHAFTINGEN E et al. “A kinetic study of pyrophosphate:fructose-6-phosphate phosphotransferase from potato tubers. Application to a microassay of fructose 2,6-bisphosphate” Eur J Biochem (1982) Vol. 129, No. 1, pp. 191-195) and normalized to total cellular protein measured by the bicinchoninic acid assay (BCA, Thermo Scientific). For example, H460 cells were exposed to the indicated concentrations of MPN-2. In order to measure F2,6BP, cells were harvested, washed with PBS, lysed in NaOH/Tris acetate by heating at 80° C. and lysates neutralized to pH 7.2. F2,6BP content was measured using a coupled enzyme reaction following a modified method of Van Schaftingen et al (VAN SCHAFTINGEN E et al. “A kinetic study of pyrophosphate:fructose-6-phosphate phosphotransferase from potato tubers. Application to a microassay of fructose 2,6-bisphosphate” Eur J Biochem (1982) Vol. 129, No. 1, pp. 191-195). The F2,6BP concentration was normalized to total cellular protein measured by the bicinchoninic acid assay (BCA, Thermo Scientific). All data are expressed as the mean±SD of three experiments. Statistical significance was assessed by the two-sample t test (independent variable). […]

human recombinant PFKFB4 = human recombinant PFKFB4 (Homo sapiens, UniProt Q16877); experiment: fructose-6-phosphate kinase activity of recombinant PFKFB4 (in vitro kinase assay); type: biochemical
Method: The fructose-6-phosphate kinase activity of human recombinant PFKFB4 in the presence of DMSO±indicated 5MPN concentrations was assayed as previously described. The activity of 5MPN against 97 kinases was examined using a commercially available active-site dependent competition binding assay core service (KINOMEscanEDGE) that quantifies the capacity of test agents to compete with an immobilized, active-site directed ligand using a DNA-tagged kinase and immobilized ligand and compound. For example, enzyme inhibition was studied using an ADP-Glo assay. The effect of MPN-2 on the activity of recombinant human PFKFB4 enzyme was examined in an ADP-Glo assay (Promega), which measures ADP formed from a kinase reaction. ADP is converted into ATP, which is converted into light by a luciferase. PFKFB4 protein was exposed to MPN-2 at indicated concentrations in the presence of ATP and fructose-6-phosphate and following manufacturer's instructions, ADP-Glo and kinase detections reagents were added. The data are shown as the decrease in luminescence caused by MPN-2 relative to DMSO.

H441 = experiment: proliferation, viable cell count; type: cell-based, human; conditions: H441, over 48 hours
Source text: (§1) H460, H1299, H441, H522 and A549 non-small cell lung cancer (NSCLC), MDA-MB-231 (breast), LNCaP (prostatic) and HCT116 (colon) adenocarcinoma and Lewis lung carcinoma (LLC) cell lines were obtained from ATCC and used within 6 months of acquisition. PFKFB4^−/− ear pinna fibroblasts isolated from TamCre/loxP/PFKFB4^−/− mice were immortalized as described previously (Chesney J et al. Fructose-2,6-bisphosphate synthesis by 6-phosphofructo-2-kinase/fructose-2,6-bisphosphatase 4 (PFKFB4) is required for the glycolytic response to hypoxia and tumor growth. Oncotarget 2014 Aug. 30; 5(16):6670-86). Normal bronchial epithelial cells (NHBE) were obtained from Lonza and NHBE cells expressing telomerase, SV40 large T antigen and activated Ras (hT/LT/Ras) were a gift from Dr. B. J. Rollins, Dana Farber Cancer Institute. All cell lines were tested and found negative for mycoplasma (PCR Mycoplasma Detection Kit, ABM). Cell lines were grown in DMEM (A549, LNCaP, MDA-MB-231, LLC and PFKFB4^−/−), RPMI 1640 (H460, H1299, H441, H522) and McCoy's 5A media (HCT116) (all from Invitrogen) containing 10% fetal calf serum (Hyclone). NHBE and hT/LT/Ras cells were grown in BEGM containing SingleQuots (Lonza). All lines were cultured at 37° C. in 5% CO2. In certain experiments, 4-hydroxytamoxifen (4HT, Sigma-Aldrich) was added to PFKFB4^−/− fibroblasts at indicated concentrations.
(§2) Cells were incubated in 20% trypan blue (Sigma) for 5 minutes. Cells excluding trypan blue were counted using a standard hemocytometer (Hausser Scientific) to determine total numbers of viable cells. Data are expressed as mean±SD of three experiments.

LNCaP = experiment: proliferation, viable cell count; type: cell-based, human; conditions: over 48 hours
Source text: as §1, §2

A549 = experiment: proliferation, viable cell count; type: cell-based, human; conditions: A549, over 48 hours
Source text: as §1, §2

HCT116 = experiment: proliferation, viable cell count; type: cell-based, human; conditions: HCT116, over 48 hours
Source text: as §1, §2

H522 = experiment: proliferation, viable cell count; type: cell-based, human; conditions: H522, over 48 hours
Source text: as §1, §2

MDA-MB-231 = experiment: proliferation, viable cell count; type: cell-based, human; conditions: MDA-MB-231, over 48 hours
Source text: as §1, §2

H1299 = experiment: proliferation, viable cell count; type: cell-based, human; conditions: H1299, over 48 hours
Source text: as §1, §2

[2] = tested on: PFKFB4-/- lung fibroblasts; experiment: cell counts of tamoxifen-inducible PFKFB4-/- fibroblasts; type: cell-based, mouse; conditions: 4HT-induced deletion, 10 μM 5MPN, 24 hours
Source text: as §1, with “NHBE and hT/LT/Ras cells were grown in BEGM containing SingleQuots (Lonza). All lines were cultured at 37° C. in 5% CO2. In certain experiments, 4-hydroxytamoxifen (4HT, Sigma-Aldrich) was added to PFKFB4^−/− fibroblasts at indicated concentrations.” left out
as §2

human cancer cell lines = experiment: proliferation, viable cell count by trypan blue exclusion; type: cell-based; conditions: counts at 48 hours shown
Method: Method: Cells were plated in 24 well plates and exposed to increasing concentrations of Formula (VIII). DMSO was used as a vehicle. After 24, 48 and 72 hours of exposure, cells were detached, and viable cells were counted by Trypan blue exclusion (representative counts at 48 hours shown).

Chain of human recombinant PFKFB4 (Q16877 whole entry): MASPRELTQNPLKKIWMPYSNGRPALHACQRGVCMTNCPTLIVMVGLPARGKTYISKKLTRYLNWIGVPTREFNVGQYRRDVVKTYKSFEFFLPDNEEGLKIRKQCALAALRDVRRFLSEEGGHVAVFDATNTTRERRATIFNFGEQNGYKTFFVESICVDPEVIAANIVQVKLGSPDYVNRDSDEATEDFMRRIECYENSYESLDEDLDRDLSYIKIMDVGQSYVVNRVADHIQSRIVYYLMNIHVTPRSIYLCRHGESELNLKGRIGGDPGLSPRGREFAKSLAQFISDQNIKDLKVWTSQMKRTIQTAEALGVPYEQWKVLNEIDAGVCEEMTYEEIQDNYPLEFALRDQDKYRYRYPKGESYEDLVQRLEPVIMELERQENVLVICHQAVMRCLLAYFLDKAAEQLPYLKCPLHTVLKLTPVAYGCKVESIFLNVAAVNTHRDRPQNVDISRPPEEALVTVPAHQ

5-[(8-methoxy-2-methylquinolin-1-ium-4-yl)amino]pentyl nitrate [MPN-2]
intravenous bioavailability [1]: exhibits intravenous bioavailability
oral bioavailability [1]: has oral bioavailability

COc1cccc2c(NCCCCCO[N+](=O)[O-])ccnc12 [5MPN, 5-[(8-methoxyquinolin-4-yl)amino]pentyl nitrate]
intratumoral F2,6BP (LLC xenografts): reduction
type of inhibition (Lineweaver-Burk analyses) (human recombinant PFKFB4; as a function of F6P concentration, FIG. 1D): competitive inhibitor of the F6P binding site
PFKFB4 activity (human recombinant PFKFB4; kinase activity of recombinant PFKFB4, FIG. 1C): inhibited PFKFB4 activity
growth (H441): dose-dependent reduction in growth
growth (LNCaP): dose-dependent reduction in growth
growth (A549): dose-dependent reduction in growth
growth (HCT116): dose-dependent reduction in growth
growth (H522): dose-dependent reduction in growth
growth (MDA-MB-231): dose-dependent reduction in growth
growth (H1299): dose-dependent reduction in growth
effect of genomic deletion of Pfkfb4 on anti-proliferative effect [2]: sensitized

COc1cccc2c(NCCCCCNC(=O)C(F)(F)F)ccnc12 [Formula (VIII), 2,2,2-trifluoro-N-(5-((8-methoxyquinolin-4-yl)amino)pentyl)acetamide]
proliferation (cell counts relative to DMSO) (human cancer cell lines): decreases the proliferation of human cancer cell lines in vitro with higher potency than 5MPN
